Results from publication PMC8112869, “Therapeutic inhibition of keratinocyte TRPV3 sensory channel by local anesthetic dyclonine” (eLife, 2021).

Tests used:
Type in all cases: cell-based
TRPV2 = target: T1, TRPV2 (Rattus norvegicus, UniProt Q9WUD2); assay: Whole-cell recording of 2-APB-activated TRPV2 in HEK 293T cells
T1 construct: expressed in transfected cells; host or cells: HEK 293T
Source text: (§1) The WT mouse TRPV3 (mTRPV3), human TRPV3 (hTRPV3), rat TRPV1, rat TRPV2, rat TRPM8, and mouse TRPA1 cDNAs were generously provided by Dr. Feng Qin (State University of New York at Buffalo, Buffalo, USA). The GFP-mTRPV3 WT and the mutants (mTRPV3-G573S and mTRPV3-G573C) in pcDNA4/TO vector were gifts from Dr. Michael X Zhu (The University of Texas Health Science Center at Houston, Houston, USA). The WT fTRPV3 was kindly provided by Dr. Makoto Tominaga (Department of Physiological Sciences, SOKENDAI, Okazaki, Japan). All mutations were made using the overlap-extension polymerase chain reaction method as previously described ([Tian et al., 2019]). The resulting mutations were then verified by DNA sequencing. […]
(§2) Conventional whole-cell and excised patch-clamp recording methods were used. […] For a subset of recordings, currents were amplified using an Axopatch 200B amplifier (Molecular Devices, Sunnyvale, CA) and recorded through a BNC-2090/MIO acquisition system (National Instruments, Austin, TX) using QStudio developed by Dr. Feng Qin at State University of New York at Buffalo. […] As determined by the conductance tests, the solution around a patch under study was fully controlled by the application of a flow rate of 100 μl/min or greater. […]

TRPM8 = target: T2, TRPM8 (Rattus norvegicus, UniProt Q8R455); assay: Whole-cell recording of menthol-activated TRPM8 in HEK 293T cells
T2 construct: expressed in transfected cells; host or cells: HEK 293T
T2 sequence (Q8R455 whole entry): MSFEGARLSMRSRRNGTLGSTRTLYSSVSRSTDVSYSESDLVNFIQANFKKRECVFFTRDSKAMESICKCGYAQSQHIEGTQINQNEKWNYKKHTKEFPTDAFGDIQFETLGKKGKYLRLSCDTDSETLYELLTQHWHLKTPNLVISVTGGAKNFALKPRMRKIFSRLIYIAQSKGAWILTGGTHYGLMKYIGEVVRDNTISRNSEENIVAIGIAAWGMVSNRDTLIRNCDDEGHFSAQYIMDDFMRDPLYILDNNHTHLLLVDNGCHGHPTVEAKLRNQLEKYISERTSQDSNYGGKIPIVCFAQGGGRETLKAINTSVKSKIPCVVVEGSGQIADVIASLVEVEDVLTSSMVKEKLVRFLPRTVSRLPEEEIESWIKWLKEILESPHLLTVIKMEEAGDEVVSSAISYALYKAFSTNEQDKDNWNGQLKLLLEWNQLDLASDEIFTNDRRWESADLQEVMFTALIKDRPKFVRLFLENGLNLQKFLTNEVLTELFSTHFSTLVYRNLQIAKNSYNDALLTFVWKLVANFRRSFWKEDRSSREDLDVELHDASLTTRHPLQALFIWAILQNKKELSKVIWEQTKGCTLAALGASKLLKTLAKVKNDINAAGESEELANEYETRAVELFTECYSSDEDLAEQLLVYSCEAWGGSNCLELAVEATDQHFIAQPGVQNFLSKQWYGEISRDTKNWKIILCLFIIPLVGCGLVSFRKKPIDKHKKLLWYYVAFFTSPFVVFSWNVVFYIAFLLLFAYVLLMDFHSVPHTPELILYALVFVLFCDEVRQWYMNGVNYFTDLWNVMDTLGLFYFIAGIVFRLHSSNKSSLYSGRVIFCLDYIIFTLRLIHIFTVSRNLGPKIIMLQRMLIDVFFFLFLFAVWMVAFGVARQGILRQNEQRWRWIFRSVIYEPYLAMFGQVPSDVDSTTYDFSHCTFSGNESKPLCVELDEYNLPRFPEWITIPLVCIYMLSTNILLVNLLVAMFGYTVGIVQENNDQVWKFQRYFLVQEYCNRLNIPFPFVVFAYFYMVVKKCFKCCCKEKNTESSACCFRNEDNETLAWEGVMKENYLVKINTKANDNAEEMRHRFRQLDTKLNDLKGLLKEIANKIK
Source text: as §1, §2

TRPA1 = target: T3, TRPA1 (Mus musculus, UniProt Q8BLA8); assay: Whole-cell recording of AITC-activated TRPA1 in HEK 293T cells
T3 construct: expressed in transfected cells; host or cells: HEK 293T
T3 sequence (Q8BLA8 whole entry): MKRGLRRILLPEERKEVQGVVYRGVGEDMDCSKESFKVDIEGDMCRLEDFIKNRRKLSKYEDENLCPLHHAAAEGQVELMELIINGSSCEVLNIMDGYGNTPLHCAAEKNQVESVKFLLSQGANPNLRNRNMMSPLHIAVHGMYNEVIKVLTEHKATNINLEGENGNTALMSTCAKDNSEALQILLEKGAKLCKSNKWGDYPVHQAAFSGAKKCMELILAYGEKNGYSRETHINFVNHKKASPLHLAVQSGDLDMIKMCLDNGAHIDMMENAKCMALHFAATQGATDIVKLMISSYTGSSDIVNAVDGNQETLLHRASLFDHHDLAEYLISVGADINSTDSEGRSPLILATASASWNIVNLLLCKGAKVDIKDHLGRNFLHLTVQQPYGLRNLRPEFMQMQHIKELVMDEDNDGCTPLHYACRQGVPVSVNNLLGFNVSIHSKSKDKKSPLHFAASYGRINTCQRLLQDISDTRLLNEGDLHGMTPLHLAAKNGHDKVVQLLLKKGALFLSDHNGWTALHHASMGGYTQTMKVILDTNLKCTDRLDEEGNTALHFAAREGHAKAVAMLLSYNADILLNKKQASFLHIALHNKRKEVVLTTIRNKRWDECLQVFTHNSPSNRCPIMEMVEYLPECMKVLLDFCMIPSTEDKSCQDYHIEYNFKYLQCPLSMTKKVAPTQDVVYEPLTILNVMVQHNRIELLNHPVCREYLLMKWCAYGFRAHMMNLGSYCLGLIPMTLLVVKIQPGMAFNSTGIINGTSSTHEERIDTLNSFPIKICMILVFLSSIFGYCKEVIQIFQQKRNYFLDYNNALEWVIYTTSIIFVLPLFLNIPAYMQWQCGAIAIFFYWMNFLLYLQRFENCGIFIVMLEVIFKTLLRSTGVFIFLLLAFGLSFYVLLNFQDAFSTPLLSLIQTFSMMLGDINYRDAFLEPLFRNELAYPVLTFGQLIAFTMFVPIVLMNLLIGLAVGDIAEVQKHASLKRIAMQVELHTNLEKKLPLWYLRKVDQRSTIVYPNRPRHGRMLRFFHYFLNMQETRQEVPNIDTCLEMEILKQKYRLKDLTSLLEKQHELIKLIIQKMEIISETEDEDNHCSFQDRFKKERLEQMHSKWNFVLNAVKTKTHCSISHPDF
Source text: as §1, §2

TRPV3 I637A = target: T4, TRPV3 I637A (Mus musculus, UniProt Q8K424, I637A); assay: Whole-cell recording of TRPV3 mutant I637A in HEK 293T cells; details: 2-APB (1 mM)-evoked, –60 mV, read-out: IC50 for inhibition of TRPV3 mutant
T4 construct: expressed in transfected cells; host or cells: HEK 293T
T4 sequence (Q8K424 whole entry I637A): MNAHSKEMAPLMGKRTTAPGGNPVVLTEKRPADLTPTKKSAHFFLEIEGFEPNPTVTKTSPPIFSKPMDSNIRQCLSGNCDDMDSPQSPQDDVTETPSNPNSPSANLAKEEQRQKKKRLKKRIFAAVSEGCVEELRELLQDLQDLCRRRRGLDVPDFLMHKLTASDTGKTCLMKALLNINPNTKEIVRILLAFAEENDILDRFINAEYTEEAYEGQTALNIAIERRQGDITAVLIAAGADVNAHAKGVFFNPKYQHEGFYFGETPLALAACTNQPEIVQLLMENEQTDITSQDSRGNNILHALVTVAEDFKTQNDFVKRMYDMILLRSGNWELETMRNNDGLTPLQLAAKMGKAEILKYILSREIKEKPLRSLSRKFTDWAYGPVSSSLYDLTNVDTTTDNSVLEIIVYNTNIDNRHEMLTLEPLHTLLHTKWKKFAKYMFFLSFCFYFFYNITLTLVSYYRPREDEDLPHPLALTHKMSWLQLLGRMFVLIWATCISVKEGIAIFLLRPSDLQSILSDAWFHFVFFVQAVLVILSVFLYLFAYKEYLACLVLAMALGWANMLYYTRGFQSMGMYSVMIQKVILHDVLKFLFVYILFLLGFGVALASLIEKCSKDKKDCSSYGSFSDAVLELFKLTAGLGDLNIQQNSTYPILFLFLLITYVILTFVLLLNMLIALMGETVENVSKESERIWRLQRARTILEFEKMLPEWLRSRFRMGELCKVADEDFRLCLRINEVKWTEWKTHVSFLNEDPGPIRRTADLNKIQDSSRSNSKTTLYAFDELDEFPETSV
Source text: as §1, §2

TRPV3 F666A = target: T5, TRPV3 F666A (Mus musculus, UniProt Q8K424, F666A); assay: Whole-cell recording of TRPV3 mutant F666A in HEK 293T cells; details: 2-APB (1 mM)-evoked, –60 mV, read-out: IC50 for inhibition of TRPV3 mutant
T5 construct: expressed in transfected cells; host or cells: HEK 293T
T5 sequence (Q8K424 whole entry F666A): as the sequence (Q8K424 whole entry I637A) above, with A637I, F666A counted along it
Source text: as §1, §2

TRPV3 N643A = target: T6, TRPV3 N643A (Mus musculus, UniProt Q8K424, N643A); assay: Whole-cell recording of TRPV3 mutant N643A in HEK 293T cells; details: 2-APB (1 mM)-evoked, –60 mV, read-out: IC50 for inhibition of TRPV3 mutant
T6 construct: expressed in transfected cells; host or cells: HEK 293T
T6 sequence (Q8K424 whole entry N643A): as the sequence (Q8K424 whole entry I637A) above, with A637I, N643A counted along it
Source text: as §1, §2

T1 sequence (Q9WUD2 whole entry): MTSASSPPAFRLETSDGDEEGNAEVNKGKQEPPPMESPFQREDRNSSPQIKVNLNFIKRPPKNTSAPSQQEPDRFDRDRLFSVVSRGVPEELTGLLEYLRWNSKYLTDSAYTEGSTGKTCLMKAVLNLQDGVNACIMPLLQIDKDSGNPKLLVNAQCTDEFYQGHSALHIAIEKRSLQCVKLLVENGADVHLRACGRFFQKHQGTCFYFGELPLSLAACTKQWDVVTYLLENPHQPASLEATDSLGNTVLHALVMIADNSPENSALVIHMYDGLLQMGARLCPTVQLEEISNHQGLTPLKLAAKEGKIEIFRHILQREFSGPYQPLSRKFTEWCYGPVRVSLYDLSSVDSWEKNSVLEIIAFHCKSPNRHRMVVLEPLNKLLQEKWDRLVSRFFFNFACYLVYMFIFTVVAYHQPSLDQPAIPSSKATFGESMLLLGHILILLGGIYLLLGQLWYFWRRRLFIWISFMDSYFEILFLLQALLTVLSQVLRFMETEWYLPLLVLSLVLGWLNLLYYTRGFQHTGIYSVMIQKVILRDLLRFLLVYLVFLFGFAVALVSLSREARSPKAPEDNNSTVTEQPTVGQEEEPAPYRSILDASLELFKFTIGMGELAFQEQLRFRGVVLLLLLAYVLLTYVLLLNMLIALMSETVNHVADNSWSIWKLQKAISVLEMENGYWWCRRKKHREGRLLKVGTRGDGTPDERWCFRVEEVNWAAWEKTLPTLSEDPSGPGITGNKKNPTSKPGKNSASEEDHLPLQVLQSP

## CCCCOc1ccc(C(=O)CCN2CCCCC2)cc1 [dyclonine]
TRPV2
  Hill coefficient nH: 2.9 ± 0.50
TRPV2; 10 μM dyclonine, 2-APB-activated
  reduction in current amplitude: 6% ± 1%
TRPM8
  Hill coefficient nH: 1.2 ± 0.20
TRPM8; 10 μM dyclonine, menthol-activated
  reduction in current amplitude: 9% ± 2%
TRPA1
  Hill coefficient nH: 1.3 ± 0.15
TRPA1; 10 μM dyclonine, AITC-activated
  reduction in current amplitude: 5% ± 1%
TRPV3 I637A
  IC50: 6.1 ± 0.43 µM
TRPV3 F666A
  IC50: 414 ± 15.7 µM
TRPV3 N643A
  IC50: 37.7 ± 5.1 µM
